Columns and labels:
CYP1A2 = experiment: Induction of expression of the CYP1A2 gene in OUMS-29 cells (RT-PCR); conditions: 1 day after addition, 3-MC 0 to 10000 nM, BP 0 to 50000 nM, corrected to beta-actin mRNA
From the text: (§1) The expression of cytochrome P450 in the OUMS-29 culture can be analyzed by assessing the level of mRNA content by the commonly known RT-PCR method using DNA primers specific to different types of cytochrome P450. These primers can be prepared from the sequences of the respective types of cytochrome P450 available from the Gene Bank database. The accession numbers at the Gene Bank are K03191 for CYP1A1, M55053 for CYP1A2, J02625 for CYP2E1, J04449 for CYP3A4, J04813 for CYP3A5, and D00408 for CYP3A7. The individual primers used were
(§2) The OUMS-29 culture was cultured for 5 to 7 days; the cells becoming confluent were harvested, from which RNA was extracted using the RNAeasy kit (Quiagen). This RNA, along with the previously determined primers specific to the respective types of cytochrome P450, was subjected to reverse transcription from mRNA and PCR using an one-step PCR kit (Takara Shuzo), after which it was separated using agarose gel and visualized with ultraviolet rays in the presence of ethidium bromide.
(§3) The cultured cells were separated, from which RNA was extracted using the method described above and subjected to RT-PCR.
(§4) Regarding annealing conditions for the RT-PCR method, the annealing temperatures were 55° C. for CYP1A1, 65° C. for CYP1A2, and 55° C. for CYP3A, the cycle numbers being 28 to 36 cycles.
The cycle number for beta-actin, serving as a control, was 15 cycles. […]

CYP1A1 = experiment: Induction of expression of the CYP1A1 gene in OUMS-29 cells (RT-PCR); conditions: 1 day after addition, 3-MC 0 to 10000 nM, BP 0 to 50000 nM, PB 0 to 25 mM, corrected to beta-actin mRNA
From the text: as §1, §2, §3, §4
The cycle number for beta-actin, serving as a control, was 15 cycles.
In this operation, an actin competitive RT-PCR kit (Takara Shuzo) was used to correct the total mRNA content in each sample with reference to the mRNA content of beta-actin, which is expressed to the same extent in all tissues.

[1] = biological target: T1, NADPH cytochrome P450 reductase (Homo sapiens, UniProt P16435); experiment: Cytochrome P450 reductase activity of enzyme source of OUMS-29 origin (cytochrome C reduction); format: in vitro ADME; conditions: disrupted OUMS-29 cells, with NADPH; 1 unit = reducing 1 nanomol of cytochrome C per milligram of protein per minute
T1 construct: disrupted using an ultrasound generator; this suspension was used as the enzyme source; endogenous in cells; host or cells: OUMS-29 (SV40 T antigen-immortalized human fetal hepatocytes), sonicated cell suspension
T1 sequence (P16435 1-677): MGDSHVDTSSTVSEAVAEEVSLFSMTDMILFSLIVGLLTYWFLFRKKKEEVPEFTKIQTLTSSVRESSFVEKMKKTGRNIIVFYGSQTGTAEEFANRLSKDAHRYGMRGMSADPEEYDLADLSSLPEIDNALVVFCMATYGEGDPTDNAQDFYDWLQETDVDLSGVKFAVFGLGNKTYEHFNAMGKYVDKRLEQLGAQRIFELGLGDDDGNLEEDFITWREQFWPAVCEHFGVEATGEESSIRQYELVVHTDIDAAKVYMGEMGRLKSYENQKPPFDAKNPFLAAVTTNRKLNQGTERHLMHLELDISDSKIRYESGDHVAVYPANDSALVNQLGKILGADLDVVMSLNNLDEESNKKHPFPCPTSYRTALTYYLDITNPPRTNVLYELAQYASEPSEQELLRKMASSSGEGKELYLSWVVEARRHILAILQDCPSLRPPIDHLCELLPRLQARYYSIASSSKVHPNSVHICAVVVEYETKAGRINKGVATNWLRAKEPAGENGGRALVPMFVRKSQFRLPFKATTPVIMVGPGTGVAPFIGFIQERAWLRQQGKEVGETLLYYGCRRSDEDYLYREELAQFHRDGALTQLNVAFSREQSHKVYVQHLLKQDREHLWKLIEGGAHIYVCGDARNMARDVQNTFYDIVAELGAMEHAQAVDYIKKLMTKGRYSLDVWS
Method: Specifically, cytochrome P450 reductase activity was determined on the basis of cytochrome C reduction in the presence of NADPH (reduced nicotinamide adenine dinucleotide phosphate) and an enzyme source of OUMS-29 origin with cytochrome C as the substrate.

Molecule	expression of CYP1A2 (mRNA, RT-PCR) (CYP1A2)	expression of CYP1A1 (mRNA, RT-PCR) (CYP1A1)	cytochrome C reduction (cytochrome P450 reductase activity) [1] [units]
Cc1ccc2cc3c(ccc4ccccc43)c3c2c1CC3 [3-methylcholanthrene]	enhanced	enhanced	–
c1ccc2c(c1)c1cccc3ccc4cccc2c4c31 [benzpyrene]	enhanced	enhanced	–
CCC1(c2ccccc2)C(=O)NC(=O)NC1=O [phenobarbitone]	–	enhanced	–
cytochrome C	–	–	8
